In paper PMC11473416, “Coumarin-chalcone derivatives as dual NLRP1 and NLRP3 inflammasome inhibitors targeting oxidative stress and inflammation in neurotoxin-induced HMC3 and BE(2)-M17 cell models of Parkinson's disease” (Frontiers in Aging Neuroscience, 2024):
Where two headings read alike, the source gives them in different places.

Experiments:
[1] = test system: PGC-1α; test: Western blot PGC-1α in MPP^+-treated BE(2)-M17 cells; assay type: cell-based, human; settings: BE(2)-M17, compound 10 μM + 0.62 mM MPP^+; MPP^+ alone 75%; untreated = 100%
Method: HMC3 (2 × 10^5/6-well) or BE(2)-M17 (4 × 10^5/6-well) cells were lysed in buffer (composition: 50 mM Tris-HCl pH8.0, 2 mM EDTA pH8.0, 150 mM NaCl, 0.5% sodium deoxycholate, 0.1% SDS, 50 mM NaF, 1% NP40) containing the protease and/or phosphatase inhibitor cocktail (Sigma-Aldrich). After sonication, the lysates were centrifuged (12,000 × g for 10 min at 4°C) and protein concentrations determined (Bradford protein assay; Bio-Rad, Hercules, CA, USA). Aliquots of protein (20 μg) were separated by electrophoresis using 10%−12% SDS–polyacrylamide gel followed by transfer to a polyvinylidene fluoride (PVDF) membrane. After being blocked, the PVDF membrane was stained with NLRP3 (#15101s), caspase-1 (CASP1; #3866s), iNOS (#20609), IL-1β (#12242), CREB (#9192), BCL2-associated X (BAX; #2772; 1:1,000; Cell Signaling), IL-6 (#ab6672), TNF-α (#ab9739), GCLC (#ab41463), BDNF (#ab108319; 1:1,000; Abcam, Cambridge, UK), NLRP1 (#NBP-1-54899; 1:500; Novus Biologicals, Centennial, CO, USA), NRF2 (#ABE413), NQO1 (#N5288), p-CREB (Ser133; #06-519; 1:1,000; Sigma-Aldrich), PGC-1α (#GTX37356; 1:1,000; GeneTex, Irvine, CA, USA), B-cell lymphoma 2 (BCL2; #IR94-392; 1:1,000; iReal Biotechnology, New Taipei City, Taiwan), or glyceraldehyde-3-phosphate dehydrogenase (GAPDH; #30000002; 1:1,000; MDBio, Taipei, Taiwan) primary antibody at room temperature 2 h or 4°C overnight. The immune complexes were detected using horseradish peroxidase (HRP)-conjugated goat anti-mouse or goat anti-rabbit IgG antibody (1:5,000; GeneTex) and chemiluminescent HRP substrate (Millipore, Burlington, MA, USA). Immunoreactive bands were captured (ImageQuant™ LAS 4000, GE Healthcare, Chicago, IL, USA) and quantified (Multi Gauge V3.0 software, Fujifilm, Tokyo, Japan).

[2] = test system: MPP^+-treated BE(2)-M17 cells; test: cell viability (MTT) in MPP^+-treated BE(2)-M17 cells; assay type: cell-based; settings: Homo sapiens, read-out: cell viability
Method: To examine neuroprotective potential of LM compounds, BE(2)-M17 cells were plated onto 96-well plate [1 × 10^4/well for cell viability and lactate dehydrogenase (LDH) release assays] or 24-well plate (5 × 10^4/well for ROS assay) with retinoic acid addition (5 μM) on day 1 to initiate neuronal differentiation. On day 5, after removing retinoic acid, cells were pre-treated with LM compounds (1–10 μM) for 8 h, followed by addition of 0.62 mM MPP^+ for 40 h. The cell viability was evaluated by MTT assay as described, and the release of LDH in cell culture medium was measured by using LDH cytotoxicity assay kit (Cayman Chemical). The absorbance was read at 490 nm with Multiskan GO microplate reader (Thermo Fisher Scientific).

[3] = oxygen radical antioxidant capacity (OxiSelect kit); settings: at 4–100 μM concentration
Method: The test of oxygen radical antioxidant capacity (Ou et al., [2001]) was performed using OxiSelect™ kit (Cell Biolabs, San Diego, CA, USA). Briefly, trolox standards (2.5–50 μM) and LM compounds (4–100 μM) were prepared using a serial dilution in a mixture containing 50% acetone and 50% water. After adding fluorescein to blank (50% acetone/50% water), standards, or samples, the mixture was mixed and incubated at 37°C for 30 min. Subsequently, free radical initiator 2,2′-azobis(2-methylpropionamidine) dihydrochloride (AAPH) was added to generate peroxyl radicals (ROO•). The quenching of fluorescent probe over time was recorded at 480 nm excitation and 520 nm emission for 60 min (Bio-Tek FLx800). To quantify the oxygen radical absorbance capacity, the area under the curve (AUC) for blank, standard and samples were calculated. After subtraction of the blank, trolox equivalent (μM) of samples were determined using a calibration curve with trolox standards.

[4] = test system: tyrosine hydroxylase (TH); test: tyrosine hydroxylase immunofluorescence staining in MPP^+-treated BE(2)-M17 cells; assay type: cell-based, human; settings: for TH expression (immunofluorescence): BE(2)-M17, compound 10 μM + 0.62 mM MPP^+, MPP^+ alone 107%, untreated = 100%
Method: BE(2)-M17 cells were seeded in 24-well plate (5 × 10^4/well) and treated with retinoic acid, LM compounds (10 μM), and MPP^+ as described. On day 7, cells were fixed (4% PFA), permeabilized (0.1% Triton X-100), blocked (2% BSA), and stained with primary tyrosine hydroxylase (TH; a marker for dopamine-containing neurons; Haavik and Toska, [1998]) antibody (#sc-374047; 1:500; Santa Cruz Biotechnology, Santa Cruz, CA, USA) at 4°C overnight, followed by Alexa Fluor 488-donkey anti-mouse IgG secondary antibody (#A-21202; 1:1,000; Thermo Fisher Scientific) at room temperature for 2 h. Nuclei were detected using DAPI (0.1 μg/ml). Dopaminergic differentiation was examined by fluorescence imaging of Alexa Fluor 488 as described.

| SMILES | PGC-1α level [1] | viability at 10 µM ([2]; retinoic acid-differentiated BE(2)-M17, compound 10 μM 8 h, then 0.62 mM MPP^+ 40 h, MPP^+ alone 81%, untreated = 100%) | oxygen radical antioxidant capacity, trolox equivalent [3] | TH expression (immunofluorescence) [4] | viability at 10 µM [2] | TH immunofluorescence ([4]; BE(2)-M17, 0.62 mM MPP^+ alone, 40 h, untreated control = 100%) |
| --- | --- | --- | --- | --- | --- | --- |
| Cc1ccc(/C=C/C(=O)c2c(O)c3ccccc3oc2=O)cc1 [LM-016] | 98–109% | 95 to 97% | 0 to 10 µM |  |  |  |
| CN(C)c1ccc(/C=C/C(=O)c2c(O)c3ccccc3oc2=O)cc1 [LM-021, (E)-3-(3-(4-(dimethylamino)phenyl)acryloyl)-4-hydroxy-2H-chromen-2-one] | 98–109% |  | 2 to 36 µM | 165% | 95 to 97% |  |
| O=C(/C=C/c1ccccc1O)c1c(O)c2ccccc2oc1=O [LM-036] | 98–109% |  | 15 to 40 µM | 128% | 95 to 97% |  |
| C[n+]1ccc(-c2ccccc2)cc1 [MPP^+, 1-methyl-4-phenyl pyridinium, reference compound] |  |  |  |  |  | 107% |
